Several values for one entry are separate records, joined by “and”; a condition that tells them apart may be missing. Identical values can stand only once. Like-named read-outs stand apart in the source and are kept apart here.
Key:
PSMA [1] = target: T1, PSMA (Homo sapiens, UniProt Q04609); assay: In vitro saturation binding assay with PC3(+) tumor membrane preparations; settings: saturation assays, mean (SE), n = 3–5
T1 construct: expressed in transfected cells; host or cells: PC3(+) (PC3 human prostate cancer cells transfected with human PSMA), grown as xenograft tumors in athymic mice; tumor membrane preparations
T1 sequence (Q04609 whole entry): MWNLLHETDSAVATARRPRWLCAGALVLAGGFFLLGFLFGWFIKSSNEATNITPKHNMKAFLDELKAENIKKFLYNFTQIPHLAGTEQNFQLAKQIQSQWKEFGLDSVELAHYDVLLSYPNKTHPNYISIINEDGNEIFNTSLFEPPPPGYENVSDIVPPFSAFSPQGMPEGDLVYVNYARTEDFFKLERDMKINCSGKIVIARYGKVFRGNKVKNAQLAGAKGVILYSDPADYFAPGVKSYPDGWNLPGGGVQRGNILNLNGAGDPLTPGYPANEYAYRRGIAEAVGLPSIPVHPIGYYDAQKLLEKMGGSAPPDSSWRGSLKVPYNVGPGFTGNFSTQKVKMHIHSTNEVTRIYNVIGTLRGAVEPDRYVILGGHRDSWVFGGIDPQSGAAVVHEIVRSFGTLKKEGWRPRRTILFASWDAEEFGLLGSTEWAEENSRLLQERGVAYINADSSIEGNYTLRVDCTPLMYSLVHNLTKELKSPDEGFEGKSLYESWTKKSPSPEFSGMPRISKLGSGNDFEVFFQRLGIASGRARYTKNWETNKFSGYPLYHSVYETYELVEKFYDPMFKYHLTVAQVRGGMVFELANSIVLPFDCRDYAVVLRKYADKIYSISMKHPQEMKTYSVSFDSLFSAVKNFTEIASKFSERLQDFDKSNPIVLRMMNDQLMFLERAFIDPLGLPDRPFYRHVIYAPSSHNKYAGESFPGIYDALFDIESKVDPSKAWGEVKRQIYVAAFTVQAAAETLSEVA
Method: (§1) PC3(−) (wildtype human prostate cancer cell line, PSMA negative) and PC3(+) (transfected with human PSMA) were provided by Dr. Hisataka Kobayashi. Cell lines were grown at 37 °C in 5% CO2 in RPMI-1640 supplemented with 10% FBS, 2 mM L-glutamine and Pen/Strep/Amphotericin B. PC3(+) and PC3(−) cell suspensions [2 × 10^6 cells; PBS:Matrigel (70:30)] from in vitro cell culture were subcutaneously implanted (right shoulder) into athymic mice (Athymic NCr- nu/nu, Charles River Laboratory, 4 weeks old) for use as positive and negative controls, respectively, for in vitro or in vivo studies. When tumors reached the appropriate size (>100 mg) the xenograft mice were used for in vivo biodistributions and imaging studies or the tumors were excised and further processed to obtain membrane preparations for in vitro assays as described previously.
In vitro saturation studies were performed to determine binding affinities (Kd) and PSMA expression levels (Bmax) using tumor membrane preparations from PC3(−) and PC3(+) PSMA xenografts (human prostate cancer cell line transfected with human PSMA; PC3(+)). […] Filter papers were collected, and the radioactive content was quantified by gamma counting (PerkinElmer 2480 Wizard3). […] Aliquots of each membrane preparation were taken for the determination of the protein concentration (Bradford method).

PC3(−) xenografts = assay: In vivo biodistribution in PC3(−) xenograft mice (negative control); settings: 60 min; mean ± SE, n = 8–10
Method: as §1
(§2) Tumor-bearing mice (tumor weights: 0.1–0.8 g) were injected while awake via the tail vein with each of the tracers [0.74–3.7 MBq (20 to 100 µCi), 10 to 80 pmol] and euthanized (via CO2 inhalation) at selected times. […] Blood samples and tissues were excised from each animal, weighed, and radioactivity content was determined (Perkin Elmer 2480 Wizard3). Radioactivity content in the blood and each tissue was expressed as % injected dose per gram of tissue [%ID/g; (Formula (1))] and then normalized for body weight to a 20 g mouse (Formula (2)) from which Tissue:Muscle ratios [T:M; (Formula (3))] were determined as follows:(1) %ID/g =[counts per minute cpmtissue / tissue weight g]×100/cpmtotal injected dose
(§3) %ID/g (normalized to a 20 g mouse) = (%ID/g) × (body weight/20 g)(2)
(§4) (3) T:M=%ID/gtissue/%ID/gmuscle

PC3(+) xenografts [2] = assay: In vivo biodistribution in PC3(+) xenograft mice; parameters: key to salivary gland T:M / Femur T:M / Blood T:M / Kidney T:M / Liver T:M: T:M = (%ID/g in tissue) / (%ID/g in muscle); settings: for Radioactivity in the blood: 60 min (Figure 5A)
Method: as §1, §2, §3, §4

[3] = Fraction of intact tracer (parent) in blood and kidney by TLC; type: in vivo, mice; settings: for %Parent compound in blood (TLC analysis): 60 min; for tissue uptake at 0.25 h: 15 min post-injection; for tissue uptake at 0.5 h: 30 min post-injection; for tissue uptake at 2 h: 120 min post-injection
Excerpt: In some cases, additional blood samples and/or tissue samples after gamma counting were taken for determining the fraction of intact radiolabeled tracer (parent) using thin-layer chromatography (TLC). For these TLC determinations: tissues were placed in equal volumes of acetonitrile and homogenized, or serum was obtained from the blood samples and mixed with an equal volume of acetonitrile. Following centrifugation of the samples, supernatants were collected and the radioactive content of the supernatants and pellets were determined. The supernatants were then applied to thin-layer chromatography (TLC) plates. The TLC plates were developed [solvent system: ethyl acetate (80%), methanol (10%) and acetic acid (10%)], and exposed on a phosphorimaging plate which was scanned the next day.

PC3(+) xenografts [4] = assay: Blocking biodistribution study in PC3(+) xenografts, coinjection of non-radioactive DCFPyL; type: in vivo, mice; settings: 60 min, coinjection of DCFPyL 1000×
Method: as §2, §3, §4

[5] = system: PC3(+) tumor xenograft mice; assay: Small animal PET imaging with ROI analysis, PC3(+) tumor xenograft mice; type: in vivo; settings: 60 min post-injection
Method: Tumor-bearing mice were anesthetized with isoflurane/O2 (1.5–3% v/v) and imaged at various times after intravenous injection of each tracer [2.6 to 3.7 MBq (70 to 100 µCi)]. Whole body static PET images were obtained at 2 bed positions (FOV = 2.0 cm, total imaging time: 10 min) using a BioPET scanner (Bioscan Inc., Washington, DC, USA). The images were reconstructed by a 3-dimensional ordered-subsets expectation maximum (3D-OSEM).

PSMA [6] = target: T1, PSMA; assay: In vitro competition binding assay with [18F]DCFPyL as radioligand, PC3(+) tumor membrane preparations
[7] = 15 min post-injection, mean ± SE
[8] = 30 min post-injection, mean ± SE
[9] = 60 min post-injection, mean ± SE
[10] = 120 min post-injection, mean ± SE
[11] = mouse, blood, intravenous, mean ± SE, read-out: Blood uptake, parent (corrected for metabolites)
[12] = mouse, kidney, intravenous, mean ± SE, read-out: Kidney uptake, parent (corrected for metabolites)

O=C(O)CC[C@H](NC(=O)N[C@@H](CCCCNC(=O)CO/N=C\c1ccc([18F])nc1)C(=O)O)C(=O)O [[^18F]1b]
Kd (PSMA [1]): 0.458 nM
PC3(−) Tumor T:M (PC3(−) xenografts): 1.43 ± 0.29
decrease of blood radioactivity compared to [18F]DCFPyL (PC3(+) xenografts [2]; 60 min): 40%
increase of PC3(+) tumor T:M compared to [18F]DCFPyL (PC3(+) xenografts [2]; 60 min): 1.6 fold
increase of kidney T:M compared to [18F]DCFPyL (PC3(+) xenografts [2]; 60 min): 1.4 fold
Radioactivity in the blood (PC3(+) xenografts [2]): 0.309 %ID/g
Blood T:M (PC3(+) xenografts [2]; 60 min, mean ± SE, n = 8–10): 2.26 ± 0.22
Femur T:M (PC3(+) xenografts [2]; 60 min, mean ± SE, n = 8–10): 1.80 ± 0.17
Kidney T:M (PC3(+) xenografts [2]; 60 min, mean ± SE, n = 8–10): 1013 ± 34
Liver T:M (PC3(+) xenografts [2]; 60 min, mean ± SE, n = 8–10): 24.9 ± 2.0
PC3(+) Tumor T:M (PC3(+) xenografts [2]; 60 min, mean ± SE, n = 8–10): 204 and 203.7 ± 34.5
%Parent compound in blood (TLC analysis) ([3]; mean ± SD, n = 2–5): 74.4 ± 7.6%

O=C(O)CC[C@H](NC(=O)N[C@@H](CCCCNC(=O)CCCCCO/N=C\c1ccc([18F])cc1)C(=O)O)C(=O)O [[^18F]2a]
Kd (PSMA [1]): 0.362 nM
decrease of PC3(+) tumor T:M in blocked group compared to non-blocked group (PC3(+) xenografts [4]): 48%
PC3(+) tumor uptake from ROI analysis of PET images [5]: 14 %ID/g
increase of liver uptake compared to [18F]DCFPyL (PET ROI) [5]: ~ 10 fold
kidney uptake from ROI analysis of PET images [5]: 98 %ID/g
liver uptake from ROI analysis of PET images [5]: 29 %ID/g
reduction of kidney uptake compared to [18F]DCFPyL (PET ROI) [5]: ~ 50%
PC3(−) Tumor T:M (PC3(−) xenografts): 1.42 ± 0.13
Blood uptake, total radioactivity (PC3(+) xenografts [2]; [7]): 4.83 ± 0.57 %ID/g
Kidney uptake, total radioactivity (PC3(+) xenografts [2]; [7]): 62.2 ± 3.4 %ID/g
Blood uptake, total radioactivity (PC3(+) xenografts [2]; [8]): 2.47 ± 0.18 %ID/g
Kidney uptake, total radioactivity (PC3(+) xenografts [2]; [8]): 78.4 ± 9.1 %ID/g
decrease of PC3(+) tumor T:M compared to [18F]DCFPyL (PC3(+) xenografts [2]; 60 min): 40%
increase of blood radioactivity vs. [18F]DCFPyL (PC3(+) xenografts [2]; 60 min): 1.6 fold
increase of liver T:M compared to [18F]DCFPyL (PC3(+) xenografts [2]; 60 min): 6.8 fold
decrease of kidney T:M compared to [18F]DCFPyL (PC3(+) xenografts [2]; 60 min, p < 0.0001): 55%
Blood T:M (PC3(+) xenografts [2]; 60 min, mean ± SE, n = 8–10): 2.85 ± 0.15
Femur T:M (PC3(+) xenografts [2]; 60 min, mean ± SE, n = 8–10): 0.73 ± 0.04
Kidney T:M (PC3(+) xenografts [2]; 60 min, mean ± SE, n = 8–10): 314.8 ± 8.3
Liver T:M (PC3(+) xenografts [2]; 60 min, mean ± SE, n = 8–10): 66.9 ± 4.2
PC3(+) Tumor T:M (PC3(+) xenografts [2]; 60 min, mean ± SE, n = 8–10): 74 and 73.9 ± 5.8
Blood uptake, total radioactivity (PC3(+) xenografts [2]; [9]): 0.77 ± 0.10 %ID/g
Kidney uptake, total radioactivity (PC3(+) xenografts [2]; [9]): 75.8 ± 6.3 %ID/g
Blood uptake, total radioactivity (PC3(+) xenografts [2]; [10]): 0.37 ± 0.03 %ID/g
Kidney uptake, total radioactivity (PC3(+) xenografts [2]; [10]): 87.8 ± 5.1 %ID/g
Femur uptake (PC3(+) xenografts [2]; all times 15 to 120 min): < 1 %ID/g
Femur T:M (PC3(+) xenografts [2]; all times except 120 min): < 1.8
decrease of tumor T:M compared to [18F]DCFPyL tumor T:M (PC3(+) xenografts [2]; at 30 and 60 min): ~ 2 fold
increase in tumor T:M from 15 to 120 min (PC3(+) xenografts [2]; mouse, in vivo): ~ 14 fold
increase of tumor retention (%ID/g) from 15 to 120 min (PC3(+) xenografts [2]; mouse, in vivo): 1.4 fold
%Parent compound in blood (TLC analysis) ([3]; mean ± SD, n = 2–5): 84.8 ± 0.6%
increase of parent kidney uptake compared to [18F]DCFPyL ([3]; 120 min): 4 fold
tissue uptake at 0.25 h [3, 11]: 4.1 ± 0.49 %ID/g
tissue uptake at 0.5 h [3, 11]: 2.08 ± 0.15 %ID/g
tissue uptake at 2 h [3, 11]: 0.31 ± 0.03 %ID/g
tissue uptake at 0.25 h [3, 12]: 11.8 ± 0.64 %ID/g
tissue uptake at 0.5 h [3, 12]: 22.7 ± 1.73 %ID/g
tissue uptake at 1 h ([3]; mouse, kidney, intravenous, 60 min post-injection, mean ± SE, read-out: Kidney uptake, parent (corrected for metabolites)): 15.6 ± 1.19 %ID/g
tissue uptake at 2 h [3, 12]: 13 ± 0.98 %ID/g
% of parent in blood ([3]; nude, mouse, in vivo): 85-83
% of parent in kidney ([3]; nude, mouse, in vivo): 29-15
%Parent compound in blood (TLC analysis) ([3]; nude, mouse, in vivo): 85%

O=C(O)CC[C@H](NC(=O)N[C@@H](CCCCNC(=O)CCCCCO/N=C\c1ccc(F)cc1)C(=O)O)C(=O)O [2a, (((. S)-5-(6-(Aminooxy)hexanamido)-1-carboxypentyl)carbamoyl)-L-glutamic acid 4-fluorobenzaldehyde oxime]
Ki (PSMA [6]): 0.621 nM

O=C(O)CC[C@H](NC(=O)N[C@@H](CCCCNC(=O)CCCCCO/N=C\c1ccc([18F])nc1)C(=O)O)C(=O)O [[^18F]2b]
Kd (PSMA [1]): 0.489 nM
decrease of PC3(+) tumor T:M in blocked group compared to non-blocked group (PC3(+) xenografts [4]): 85%
PC3(−) Tumor T:M (PC3(−) xenografts): 1.65 ± 0.20
decrease of PC3(+) tumor T:M compared to [18F]DCFPyL (PC3(+) xenografts [2]; 60 min): 27%
decrease of blood radioactivity compared to [18F]DCFPyL (PC3(+) xenografts [2]; 60 min): 27%
Radioactivity in the blood (PC3(+) xenografts [2]): 0.377 %ID/g
Blood T:M (PC3(+) xenografts [2]; 60 min, mean ± SE, n = 8–10): 2.04 ± 0.11
Femur T:M (PC3(+) xenografts [2]; 60 min, mean ± SE, n = 8–10): 2.00 ± 0.18
Kidney T:M (PC3(+) xenografts [2]; 60 min, mean ± SE, n = 8–10): 814.2 ± 71.9
Liver T:M (PC3(+) xenografts [2]; 60 min, mean ± SE, n = 8–10): 44.6 ± 3.8
PC3(+) Tumor T:M (PC3(+) xenografts [2]; 60 min, mean ± SE, n = 8–10): 90 and 89.9 ± 7.6
%Parent compound in blood (TLC analysis) ([3]; mean ± SD, n = 2–5): 78.8 ± 2.6%

O=C(O)CC[C@H](NC(=O)N[C@@H](CCCCNC(=O)CO/N=C\c1ccc(F)nc1)C(=O)O)C(=O)O [1b, (((S)-5-(2-(aminooxy)acetamido)-1-carboxypentyl)carbamoyl)-L-glutamic acid 6-fluoronicotinaldehyde oxime]
Ki (PSMA [6]): 0.312 nM

O=C(O)CC[C@H](NC(=O)N[C@@H](CCCCNC(=O)CO/N=C\c1ccc(F)cc1)C(=O)O)C(=O)O [1a, (((S)-5-(2-(aminooxy)acetamido)-1-carboxypentyl)carbamoyl)-L-glutamic acid 4-fluorobenzaldehyde oxime, reference compound]
Ki (PSMA [6]): 0.101 nM

O=C(O)CC[C@H](NC(=O)N[C@@H](CCCCNC(=O)CCCCCO/N=C\c1ccc(F)nc1)C(=O)O)C(=O)O [2b, (((. S)-5-(6-(Aminooxy)hexanamido)-1-carboxypentyl)carbamoyl)-L-glutamic acid 6-fluoronicotinaldehyde oxime]
Ki (PSMA [6]): 0.901 nM
